What was measured:
[1] = tested on: white blood cells (lymphocytes) in human blood; assay: Cytotoxicity towards lymphocytes in human blood; assay type: cell-based; details: human blood exposed 24 hours, lymphocyte survival, effective concentrations (<20 μM) (FIG. 11)
Description: Human blood was exposed to TCH-013 (imidazoline 1) for 24 hours at various concentrations and the lymphocytes were evaluated for survival.
(§1) Given the critical role NF-κB-mediated IL-6 production plays in the growth and […] of multiple myeloma, we investigated the use of TCH-013 in somewhat more detail in a MM cell line (RPMI-8226).

RPMI-8226 cells = assay: Cell death in multiple myeloma cells, MTS assay; assay type: cell-based; details: Homo sapiens, RPMI-8226, 24 h
Description: RPMI-8226 cells were treated with various concentrations of TCH-013 in duplicate and incubated for 24 hours. Percent survival was extrapolated based on mitochondrial activity as determined by MTS assay.
as §1

## CCOC(=O)[C@@]1(c2ccccc2)N=C(c2ccccc2)N(Cc2ccccc2)[C@H]1c1ccccc1 (racemic) [TCH-013]
[1]
  cytotoxicity towards white blood cells: no significant cytotoxicity
RPMI-8226 cells
  CC50: 4 µM

## COc1cccc2c1C(=O)c1c(O)c3c(c(O)c1C2=O)C[C@@](O)(C(=O)CO)C[C@@H]3O[C@H]1C[C@H](N)[C@H](O)[C@H](C)O1 [doxorubicin]
RPMI-8226 cells
  CC50: 1.2 µM

## N[C@@H](Cc1ccc(N(CCCl)CCCl)cc1)C(=O)O [melphalan]
RPMI-8226 cells
  CC50: 30.6 µM
